Data taken from patent US8168651B2, “Protein kinase modulators” (Cylene Pharmaceuticals, Inc., priority 2008, dated 2012).

Experiments:
Experiment in all cases: Standardized radiometric kinase assays, percentage of activity at 0.5 μM;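 further: Read-out is ³³P-labelled substrate protein phosphorylated by each kinase, captured on filters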
[1] = molecular target: each individual kinase of the panel (Homo sapiens, UniProt O00141)
[2] = molecular target: each individual kinase of the panel (Homo sapiens, UniProt O43353)
[3] = molecular target: each individual kinase of the panel (Homo sapiens, UniProt O75116)
[4] = molecular target: each individual kinase of the panel (Homo sapiens, UniProt O75582)
[5] = molecular target: each individual kinase of the panel (Homo sapiens, UniProt O96013)
[6] = molecular target: each individual kinase of the panel (Homo sapiens, UniProt O96017, R145W)
[7] = molecular target: each individual kinase of the panel (Homo sapiens, UniProt P00519, T315I)
[8] = molecular target: each individual kinase of the panel (Homo sapiens, UniProt P05129)
[9] = molecular target: each individual kinase of the panel (Homo sapiens, UniProt P22455)
each individual kinase of the panel (Homo sapiens, UniProt P22455), sequence (P22455 22-802 limits assumed): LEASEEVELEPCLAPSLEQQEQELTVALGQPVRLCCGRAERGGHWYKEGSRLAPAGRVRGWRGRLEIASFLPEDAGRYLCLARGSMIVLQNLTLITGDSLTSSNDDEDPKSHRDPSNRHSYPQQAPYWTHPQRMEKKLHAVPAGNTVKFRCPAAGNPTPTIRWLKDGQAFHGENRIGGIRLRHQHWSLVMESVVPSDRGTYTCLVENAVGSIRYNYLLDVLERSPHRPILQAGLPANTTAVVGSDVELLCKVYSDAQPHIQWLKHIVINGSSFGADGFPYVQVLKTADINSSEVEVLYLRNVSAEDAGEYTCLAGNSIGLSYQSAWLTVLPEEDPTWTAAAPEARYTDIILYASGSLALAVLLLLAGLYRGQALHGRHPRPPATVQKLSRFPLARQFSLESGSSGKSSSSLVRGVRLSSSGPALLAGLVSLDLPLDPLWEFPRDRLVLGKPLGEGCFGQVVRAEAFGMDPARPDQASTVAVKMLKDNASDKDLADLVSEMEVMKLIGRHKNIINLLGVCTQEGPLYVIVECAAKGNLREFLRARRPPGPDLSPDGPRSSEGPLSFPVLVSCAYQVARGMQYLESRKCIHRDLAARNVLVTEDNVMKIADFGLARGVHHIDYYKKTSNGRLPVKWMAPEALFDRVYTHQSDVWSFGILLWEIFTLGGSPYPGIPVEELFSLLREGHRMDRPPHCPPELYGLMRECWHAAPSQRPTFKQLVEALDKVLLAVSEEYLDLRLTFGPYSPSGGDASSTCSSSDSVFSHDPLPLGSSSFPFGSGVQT

[10] = molecular target: each individual kinase of the panel (Homo sapiens, UniProt P22607)
each individual kinase of the panel (Homo sapiens, UniProt P22607), sequence (P22607 23-806 limits assumed): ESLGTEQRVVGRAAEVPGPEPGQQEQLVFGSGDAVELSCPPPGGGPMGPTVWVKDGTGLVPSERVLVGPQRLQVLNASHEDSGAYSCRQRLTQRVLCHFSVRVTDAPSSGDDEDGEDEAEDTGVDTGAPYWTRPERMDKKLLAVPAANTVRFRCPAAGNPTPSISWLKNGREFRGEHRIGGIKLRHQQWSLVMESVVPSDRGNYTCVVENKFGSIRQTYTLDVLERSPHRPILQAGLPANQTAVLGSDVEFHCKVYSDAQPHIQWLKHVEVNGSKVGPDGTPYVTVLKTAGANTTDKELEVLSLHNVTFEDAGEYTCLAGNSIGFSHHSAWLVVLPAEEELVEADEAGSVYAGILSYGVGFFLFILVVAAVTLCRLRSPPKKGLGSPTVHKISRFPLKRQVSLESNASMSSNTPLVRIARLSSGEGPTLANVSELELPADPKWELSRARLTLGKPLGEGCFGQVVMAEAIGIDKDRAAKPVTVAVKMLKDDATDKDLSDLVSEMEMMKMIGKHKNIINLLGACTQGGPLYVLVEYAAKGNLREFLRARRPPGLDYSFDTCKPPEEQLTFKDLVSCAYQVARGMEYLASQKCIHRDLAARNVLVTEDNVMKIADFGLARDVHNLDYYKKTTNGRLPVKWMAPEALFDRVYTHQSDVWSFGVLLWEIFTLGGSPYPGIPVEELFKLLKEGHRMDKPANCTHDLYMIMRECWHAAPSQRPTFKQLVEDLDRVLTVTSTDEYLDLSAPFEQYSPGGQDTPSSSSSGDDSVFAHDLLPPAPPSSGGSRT

[11] = molecular target: each individual kinase of the panel (Homo sapiens, UniProt P42684)
each individual kinase of the panel (Homo sapiens, UniProt P42684), sequence (P42684 2-1182 limits assumed): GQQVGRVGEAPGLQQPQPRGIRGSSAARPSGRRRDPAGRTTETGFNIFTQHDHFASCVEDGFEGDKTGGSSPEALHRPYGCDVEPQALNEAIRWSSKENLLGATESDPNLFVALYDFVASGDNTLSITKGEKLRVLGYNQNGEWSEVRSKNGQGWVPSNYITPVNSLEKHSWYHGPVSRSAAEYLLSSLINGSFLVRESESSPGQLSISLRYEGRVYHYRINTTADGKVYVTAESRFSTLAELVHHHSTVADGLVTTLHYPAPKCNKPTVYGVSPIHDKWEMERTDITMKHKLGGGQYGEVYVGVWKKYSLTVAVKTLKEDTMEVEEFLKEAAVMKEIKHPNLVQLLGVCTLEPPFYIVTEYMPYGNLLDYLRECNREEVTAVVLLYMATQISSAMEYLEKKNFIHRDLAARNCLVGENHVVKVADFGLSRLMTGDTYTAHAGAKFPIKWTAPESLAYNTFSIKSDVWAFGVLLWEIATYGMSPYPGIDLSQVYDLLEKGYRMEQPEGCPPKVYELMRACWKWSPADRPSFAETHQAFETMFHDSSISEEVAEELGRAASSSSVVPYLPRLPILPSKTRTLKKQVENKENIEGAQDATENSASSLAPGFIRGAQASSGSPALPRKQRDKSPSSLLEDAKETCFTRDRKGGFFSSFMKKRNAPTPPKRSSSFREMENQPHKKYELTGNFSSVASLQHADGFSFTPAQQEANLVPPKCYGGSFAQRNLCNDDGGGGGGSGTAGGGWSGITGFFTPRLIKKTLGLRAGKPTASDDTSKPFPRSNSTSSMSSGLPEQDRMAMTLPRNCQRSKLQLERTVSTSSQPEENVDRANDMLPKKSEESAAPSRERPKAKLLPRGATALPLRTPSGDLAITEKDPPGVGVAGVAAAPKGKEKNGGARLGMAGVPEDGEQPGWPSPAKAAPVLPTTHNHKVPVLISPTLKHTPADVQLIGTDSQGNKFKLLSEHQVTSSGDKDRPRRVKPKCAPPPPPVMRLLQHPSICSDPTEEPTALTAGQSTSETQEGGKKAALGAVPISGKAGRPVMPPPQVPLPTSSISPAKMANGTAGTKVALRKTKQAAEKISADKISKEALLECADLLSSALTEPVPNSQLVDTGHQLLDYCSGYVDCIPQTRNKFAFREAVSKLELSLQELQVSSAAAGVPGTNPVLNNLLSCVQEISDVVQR

[12] = molecular target: each individual kinase of the panel (Homo sapiens, UniProt P43250)
[13] = molecular target: each individual kinase of the panel (Homo sapiens, UniProt P49761)
[14] = molecular target: each individual kinase of the panel (Homo sapiens, UniProt P51817)
[15] = molecular target: each individual kinase of the panel (Homo sapiens, UniProt P52333)
[16] = molecular target: each individual kinase of the panel (Homo sapiens, UniProt P52564)
[17] = molecular target: each individual kinase of the panel (Homo sapiens, UniProt P54764)
each individual kinase of the panel (Homo sapiens, UniProt P54764), sequence (P54764 20-986 limits assumed): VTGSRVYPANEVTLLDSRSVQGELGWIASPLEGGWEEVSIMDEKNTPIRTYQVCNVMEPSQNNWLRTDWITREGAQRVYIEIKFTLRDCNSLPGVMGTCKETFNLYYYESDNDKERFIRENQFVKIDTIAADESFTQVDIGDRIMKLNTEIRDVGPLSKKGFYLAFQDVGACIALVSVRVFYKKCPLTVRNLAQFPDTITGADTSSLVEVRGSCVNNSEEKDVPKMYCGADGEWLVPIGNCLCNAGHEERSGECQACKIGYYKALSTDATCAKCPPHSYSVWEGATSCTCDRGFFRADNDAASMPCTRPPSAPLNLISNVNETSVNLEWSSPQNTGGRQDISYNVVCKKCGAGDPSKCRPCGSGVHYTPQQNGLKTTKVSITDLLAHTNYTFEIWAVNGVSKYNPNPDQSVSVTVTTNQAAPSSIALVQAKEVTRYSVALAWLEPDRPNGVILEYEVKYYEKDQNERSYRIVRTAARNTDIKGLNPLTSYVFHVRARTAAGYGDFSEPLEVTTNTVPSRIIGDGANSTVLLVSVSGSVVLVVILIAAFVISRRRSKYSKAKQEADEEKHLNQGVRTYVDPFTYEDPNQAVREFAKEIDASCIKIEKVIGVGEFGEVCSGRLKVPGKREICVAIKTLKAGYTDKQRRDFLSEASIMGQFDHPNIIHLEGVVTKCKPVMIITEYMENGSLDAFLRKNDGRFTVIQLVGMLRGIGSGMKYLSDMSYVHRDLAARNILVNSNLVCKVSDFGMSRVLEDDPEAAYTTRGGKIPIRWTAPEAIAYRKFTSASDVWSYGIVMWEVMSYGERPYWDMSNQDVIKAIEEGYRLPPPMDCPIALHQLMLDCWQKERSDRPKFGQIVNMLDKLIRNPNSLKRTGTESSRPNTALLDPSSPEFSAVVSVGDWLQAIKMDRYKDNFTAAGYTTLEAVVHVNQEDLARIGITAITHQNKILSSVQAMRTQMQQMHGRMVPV

[18] = molecular target: each individual kinase of the panel (Homo sapiens, UniProt Q00535)
[19] = molecular target: each individual kinase of the panel (Homo sapiens, UniProt Q12851)
[20] = molecular target: each individual kinase of the panel (Homo sapiens, UniProt Q16566)
[21] = molecular target: each individual kinase of the panel (Homo sapiens, UniProt Q7KZI7)
[22] = molecular target: each individual kinase of the panel (Homo sapiens, UniProt Q86UE8)
[23] = molecular target: each individual kinase of the panel (Homo sapiens, UniProt Q96RG2)
[24] = molecular target: each individual kinase of the panel (Homo sapiens, UniProt Q9BXA7)
[25] = molecular target: each individual kinase of the panel (Homo sapiens, UniProt Q9BYP7)
[26] = molecular target: each individual kinase of the panel (Homo sapiens, UniProt Q9BYT3)
[27] = molecular target: each individual kinase of the panel (Homo sapiens, UniProt Q9P286)
[28] = molecular target: each individual kinase of the panel (Homo sapiens, UniProt Q9UHD2)
[29] = molecular target: each individual kinase of the panel (Homo sapiens, UniProt Q9UL54)
[30] = molecular target: each individual kinase of the panel (Homo sapiens, UniProt Q9Y243)
each individual kinase of the panel (Homo sapiens, UniProt Q9Y243), sequence (Q9Y243 2-479 limits assumed): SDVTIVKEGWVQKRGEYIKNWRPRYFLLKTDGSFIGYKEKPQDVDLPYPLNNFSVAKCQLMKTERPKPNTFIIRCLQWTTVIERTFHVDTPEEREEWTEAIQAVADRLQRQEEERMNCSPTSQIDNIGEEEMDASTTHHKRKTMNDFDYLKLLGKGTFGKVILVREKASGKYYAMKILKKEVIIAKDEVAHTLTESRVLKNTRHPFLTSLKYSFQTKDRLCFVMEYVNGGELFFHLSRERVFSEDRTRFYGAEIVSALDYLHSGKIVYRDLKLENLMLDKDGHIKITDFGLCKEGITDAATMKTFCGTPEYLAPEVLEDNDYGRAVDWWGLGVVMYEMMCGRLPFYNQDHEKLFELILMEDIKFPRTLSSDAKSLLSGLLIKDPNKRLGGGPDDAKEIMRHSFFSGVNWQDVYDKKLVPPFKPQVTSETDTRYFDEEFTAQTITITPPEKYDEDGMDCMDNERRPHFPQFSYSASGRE

[31] = molecular target: each individual kinase of the panel (Homo sapiens, UniProt Q9Y6E0)

C#Cc1cccc(Nc2nc3cc(C(=O)O)ccc3c3cncnc23)c1 [drawing 1135]
SGK percentage of activity [1]: −1%
RIPK2 percentage of activity [2]: 2%
ROCK-II percentage of activity [3]: −4%
MSK1 percentage of activity [4]: 19%
PAK4 percentage of activity [5]: −12%
CHK2(R145W) (h) percentage of activity [6]: 0%
ABL1(T3151) percentage of activity [7]: −7%
PRKCG percentage of activity [8]: 0%
FGFR4 percentage of activity [9]: 14%
FGFR3 percentage of activity [10]: −2%
ABL2 percentage of activity [11]: 2%
GRK6 percentage of activity [12]: −2%
CLK3 percentage of activity [13]: 83%
PRKX percentage of activity [14]: 3%
JAK3 percentage of activity [15]: 8%
MEK6 percentage of activity [16]: 6%
EPHA4 percentage of activity [17]: −3%
CDK5/p25 percentage of activity [18]: 4%
CDK5/p35 percentage of activity [18]: −7%
GCK percentage of activity [19]: 1%
CAMK4 percentage of activity [20]: 2%
PAR-1B alpha percentage of activity [21]: 7%
TLK2 percentage of activity [22]: 8%
PASK percentage of activity [23]: 87%
TSSK1 percentage of activity [24]: −18%
WNK3 percentage of activity [25]: −17%
STK33 percentage of activity [26]: 0%
PAK5 percentage of activity [27]: −8%
TBK1 percentage of activity [28]: 70%
TAO2 percentage of activity [29]: 3%
AKT3 percentage of activity [30]: 0%
MST3 percentage of activity [31]: 0%
